In US11584755B2 (IDEAYA BIOSCIENCES, INC., priority 2017, dated 2023):

Experiments:
Format in all cases: biochemical
hXPG = hXPG (Homo sapiens (Human), UniProt P28715); experiment: Enzymatic IC50 assay, FAM-labeled DNA oligomer substrate, fluorescence intensity (XPG); settings: hXPG 100 nM, substrate 100 nM, reaction time 120 minutes, 23° C.
Method: (§1) FEN1, EXO1 or XPG enzyme was incubated with compound or vehicle (DMSO) and the FAM-labeled DNA oligomer substrate in a microtiter plate. The stop buffer contains EDTA to stop the enzymatic reaction. The plate is read for fluorescence intensity. The high control (DMSO) with high fluorescence intensity represents no inhibition of enzymatic reaction while the low control (10 μM) with low fluorescence intensity represents full inhibition of enzymatic reaction.
(§2) • FEN1 • hFEN1: 70 pM • Substrate: 100 nM • Reaction time: 20 minutes • EXO1 • hEXO1: 6 nM, Isoforml • Substrate: 30 nM • Reaction time: 60 minutes • XPG • hXPG: 100 nM • Substrate: 100 nM • Reaction time: 120 minutes
(§3) Annealing Buffer: 50 mM Tris-HCl, 50 mM NaCl, 1 mM DTT Assay buffer: 50 mM Tris-HCl pH 8.0, 10 mM MgCl2, 0.01% BSA, 1 mM DTT Stop buffer: 50 mM EDTA in assay buffer Temperature: 23° C. Total volume: 40 μl Controls: • 0% inhibition control: DMSO • 100% inhibition control: 10 μM (final) 5-chloro-3-hydroxy-1,3-dihydroquinazoline-2,4-dione Enzyme Reaction and Detection: • 1. Prepare 25 μM intermediate stock of the substrate by diluting SEQ ID NO:1, SEQ ID NO:2, and SEQ ID NO:3 in annealing buffer, in a PCR tube. • 2. Place the PCR tube on a heat block, heat at 95° C. for 3 minutes, then drop in 0.2° C. increments over 2 minutes, stopping at 25° C. • 3. Remove the tube and let the tube cool at room temperature. • 4. Transfer 10 μL of 3× final concentration test compounds or DMSO to the appropriate wells of a microtiter plate. • 5. Transfer 10 μL of 3× final concentration enzyme in assay buffer or assay buffer alone to the appropriate wells. • 6. Incubate the plate at room temperature for 15 minutes. • 7. Transfer 10 μL of 3× substrate in assay buffer to all the test wells. • 8. Incubate the plate at room temperature for prescribed reaction time. • 9. Centrifuge the plate at 1000 rpm for 1 minute. • 10. Transfer 10 μL of stop buffer to all the test wells. • 11. Centrifuge the plate at 1000 rpm for 1 minute. • 12. Read the plate on a plate reader.

hFEN1 = hFEN1 (Homo sapiens (Human), UniProt P39748); experiment: Enzymatic IC50 assay, FAM-labeled DNA oligomer substrate, fluorescence intensity (FEN1); settings: hFEN1 70 pM, substrate 100 nM, reaction time 20 minutes, 23° C.
Sequence of hFEN1 (P39748 whole entry): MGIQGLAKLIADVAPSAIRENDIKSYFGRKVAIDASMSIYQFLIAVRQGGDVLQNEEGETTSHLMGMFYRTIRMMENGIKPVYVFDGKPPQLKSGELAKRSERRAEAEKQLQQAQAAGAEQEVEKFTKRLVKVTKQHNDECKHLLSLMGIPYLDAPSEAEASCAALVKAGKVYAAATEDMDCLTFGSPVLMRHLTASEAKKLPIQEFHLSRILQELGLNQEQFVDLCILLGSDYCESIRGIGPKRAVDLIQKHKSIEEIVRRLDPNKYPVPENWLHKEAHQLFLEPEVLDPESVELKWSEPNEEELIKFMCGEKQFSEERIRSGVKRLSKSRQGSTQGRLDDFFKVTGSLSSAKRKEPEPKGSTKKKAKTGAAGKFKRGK
Summary of the method: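 FEN1, EXO1 or XPG was preincubated 15 min with compound, then the FAM-labelled DNA oligomer substrate was added in Tris-HCl pH 8.0 with 10 mM MgCl2 at 23° C. FEN1 was 70 pM with 100 nM substrate for 20 min, EXO1 6 nM with 30 nM for 60 min, and XPG 100 nM with 100 nM for 120 min. Reactions were EDTA-stopped and read by fluorescence intensity.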

hEXO1, Isoform1 = hEXO1, Isoform1 (Homo sapiens (Human), UniProt Q9UQ84); experiment: Enzymatic IC50 assay, FAM-labeled DNA oligomer substrate, fluorescence intensity (EXO1); settings: hEXO1 6 nM, substrate 30 nM, reaction time 60 minutes, 23° C.
Sequence of hEXO1, Isoform1 (Q9UQ84 whole entry, canonical isoform): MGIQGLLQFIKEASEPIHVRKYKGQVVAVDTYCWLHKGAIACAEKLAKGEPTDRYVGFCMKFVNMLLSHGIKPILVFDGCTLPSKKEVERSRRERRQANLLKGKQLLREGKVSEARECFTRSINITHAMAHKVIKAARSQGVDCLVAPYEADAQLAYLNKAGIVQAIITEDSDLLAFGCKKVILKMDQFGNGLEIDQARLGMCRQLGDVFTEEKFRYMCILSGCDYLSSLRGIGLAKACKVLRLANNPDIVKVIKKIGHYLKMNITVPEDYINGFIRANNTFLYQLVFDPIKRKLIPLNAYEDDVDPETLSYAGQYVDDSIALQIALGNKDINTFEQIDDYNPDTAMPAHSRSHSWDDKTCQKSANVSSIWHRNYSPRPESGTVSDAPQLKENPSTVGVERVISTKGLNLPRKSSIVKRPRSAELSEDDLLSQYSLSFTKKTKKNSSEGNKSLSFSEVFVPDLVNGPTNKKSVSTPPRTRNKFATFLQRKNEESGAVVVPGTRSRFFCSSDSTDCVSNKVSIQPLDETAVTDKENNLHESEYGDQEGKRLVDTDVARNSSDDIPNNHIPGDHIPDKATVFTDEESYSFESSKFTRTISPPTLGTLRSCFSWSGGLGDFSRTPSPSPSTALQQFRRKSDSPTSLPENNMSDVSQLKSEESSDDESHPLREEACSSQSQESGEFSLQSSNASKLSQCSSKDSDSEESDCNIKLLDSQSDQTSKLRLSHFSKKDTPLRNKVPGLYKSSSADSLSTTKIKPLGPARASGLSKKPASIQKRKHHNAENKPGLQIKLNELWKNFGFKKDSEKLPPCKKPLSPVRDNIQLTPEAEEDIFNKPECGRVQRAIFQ
Method: as §1, §2, §3

Sequence of hXPG (P28715 whole entry): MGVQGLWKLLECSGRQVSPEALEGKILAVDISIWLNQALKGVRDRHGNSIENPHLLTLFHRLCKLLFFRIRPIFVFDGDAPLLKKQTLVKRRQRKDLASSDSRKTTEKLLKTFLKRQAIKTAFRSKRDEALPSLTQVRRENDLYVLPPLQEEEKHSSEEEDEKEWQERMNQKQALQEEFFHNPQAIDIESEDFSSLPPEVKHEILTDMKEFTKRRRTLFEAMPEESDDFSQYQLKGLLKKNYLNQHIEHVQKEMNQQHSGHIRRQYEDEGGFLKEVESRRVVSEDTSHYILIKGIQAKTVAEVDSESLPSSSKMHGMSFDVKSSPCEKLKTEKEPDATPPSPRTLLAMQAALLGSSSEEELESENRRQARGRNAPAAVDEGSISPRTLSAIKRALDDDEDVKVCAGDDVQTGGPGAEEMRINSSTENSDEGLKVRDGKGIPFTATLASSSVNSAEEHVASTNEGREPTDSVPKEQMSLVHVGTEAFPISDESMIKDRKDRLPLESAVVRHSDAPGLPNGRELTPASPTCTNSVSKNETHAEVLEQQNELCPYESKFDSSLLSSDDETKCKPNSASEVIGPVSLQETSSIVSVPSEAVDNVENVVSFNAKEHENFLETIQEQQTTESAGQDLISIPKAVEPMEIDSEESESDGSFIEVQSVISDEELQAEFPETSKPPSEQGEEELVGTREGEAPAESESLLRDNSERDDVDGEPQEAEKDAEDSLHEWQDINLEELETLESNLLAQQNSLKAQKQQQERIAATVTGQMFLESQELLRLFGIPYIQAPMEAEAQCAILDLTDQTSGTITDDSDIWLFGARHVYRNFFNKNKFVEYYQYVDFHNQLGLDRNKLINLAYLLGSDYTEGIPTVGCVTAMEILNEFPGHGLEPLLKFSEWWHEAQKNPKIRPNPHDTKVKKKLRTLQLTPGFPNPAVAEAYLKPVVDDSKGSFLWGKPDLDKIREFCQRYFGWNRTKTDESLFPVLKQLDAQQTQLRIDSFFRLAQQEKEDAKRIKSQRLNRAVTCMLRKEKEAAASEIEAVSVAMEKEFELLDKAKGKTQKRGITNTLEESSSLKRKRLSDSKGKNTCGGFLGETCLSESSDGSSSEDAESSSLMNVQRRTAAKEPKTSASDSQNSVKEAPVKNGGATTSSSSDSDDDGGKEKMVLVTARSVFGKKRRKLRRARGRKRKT

IC50 (hXPG) [nM] | IC50 (hFEN1) [nM] | IC50 (hEXO1, Isoform1) [nM] | Structure (SMILES)
2250 to 10000 | < 200 | 2250 to 10000 | O=C(O)c1c(O)c(=O)n(Cc2cnn(Cc3cn4ncccc4n3)c2)c2ccsc12 [Example 138]
2250 to 10000 | 750 to 2250 | 250 to 750 | O=C(O)c1c(O)c(=O)n(Cc2noc(-c3ccccc3)n2)c2ccsc12 [Example 88, 6-hydroxy-5-oxo-4-[(5-phenyl-1,2,4-oxadiazol-3-yl)methyl]-4,5-dihydrothieno[3,2-b]pyridine-7-carboxylic acid]
2250 to 10000 | < 200 | 750 to 2250 | N#Cc1ccc(Cn2cc(Cn3c(=O)c(O)c(C(=O)O)c4sccc43)cn2)cc1 [Example 127, 4-{[1-(4-cyanobenzyl)-1H-pyrazol-4-yl]methyl}-6-hydroxy-5-oxo-4,5-dihydrothieno[3,2-b]pyridine-7-carboxylic acid]
2250 to 10000 | 250 to 750 | 2250 to 10000 | CC(=O)Nc1cccc(-c2cccc(Cn3c(=O)c(O)c(C(=O)O)c4sccc43)c2)c1 [Example 2, 4-((3′-acetamido-[1,1′-biphenyl]-3-yl)methyl)-6-hydroxy-5-oxo-4,5-dihydrothieno[3,2-b]pyridine-7-carboxylic acid]
2250 to 10000 |  | 750 to 2250 | O=C(O)c1c(O)c(=O)n(Cc2cnc3ccccn23)c2ccsc12 [Example 100, 6-hydroxy-4-(imidazo[1,2-a]pyridin-3-ylmethyl)-5-oxo-4,5-dihydrothieno[3,2-b]pyridine-7-carboxylic acid]
2250 to 10000 | < 200 |  | O=C(O)c1c(O)c(=O)n(Cc2cnn(Cc3ncc4ccccn34)c2)c2ccsc12 [Example 142]
 | 2250 to 10000 | 750 to 2250 | Cn1cc(Cn2c(=O)c(O)c(C(=O)O)c3sccc32)c(-c2ccccc2)n1 [Example 158, 6-hydroxy-4-[(1-methyl-3-phenyl-1H-pyrazol-4-yl)methyl]-5-oxo-4,5-dihydrothieno[3,2-b]pyridine-7-carboxylic acid]
 | < 200 | 2250 to 10000 | O=C(O)Cn1cc(Cn2c(=O)c(O)c(C(=O)O)c3sccc32)cn1 [Example 163, 4-{[1-(carboxymethyl)-1H-pyrazol-4-yl]methyl}-6-hydroxy-5-oxo-4,5-dihydrothieno[3,2-b]pyridine-7-carboxylic acid]

More lines, now with the values behind:

Structure (SMILES) | IC50 (hXPG) [nM] | IC50 (hFEN1) [nM] | IC50 (hEXO1, Isoform1) [nM]
CS(=O)(=O)c1ccc(Cn2c(=O)c(O)c(C(=O)O)c3sccc32)cc1 [Example 50, 6-hydroxy-4-(4-(methylsulfonyl)benzyl)-5-oxo-4,5-dihydrothieno[3,2-b]pyridine-7-carboxylic acid] | 2250 to 10000 | 250 to 750 | 750 to 2250
COc1ccc(Cn2c(=O)c(O)c(C(=O)O)c3sc(C4CC4)cc32)cc1 [Example 30, 2-cyclopropyl-6-hydroxy-4-(4-methoxybenzyl)-5-oxo-4,5-dihydrothieno[3,2-b]pyridine-7-carboxylic acid] | 2250 to 10000 | 750 to 2250 | 250 to 750
O=C(O)c1c(O)c(=O)n(Cc2cn(-c3ccc4c(c3)OCO4)nn2)c2ccsc12 [Example 148, 4-{[1-(benzo[d][1,3]dioxol-5-yl)-1H-1,2,3-triazol-4-yl]methyl}-6-hydroxy-5-oxo-4,5-dihydrothieno[3,2-b]pyridine-7-carboxylic acid] | 250 to 750 | < 200 | 250 to 750
CS(=O)(=O)Nc1cccc(Cn2c(=O)c(O)c(C(=O)O)c3sccc32)c1 [Example 78, 6-hydroxy-4-[3-(methylsulfonamido)benzyl]-5-oxo-4,5-dihydrothieno[3,2-b]pyridine-7-carboxylic acid] | 2250 to 10000 | 250 to 750 | 750 to 2250
O=C(O)c1c(O)c(=O)n(Cc2cnn(Cc3ccc4nonc4c3)c2)c2ccsc12 [Example 141, 4-{[1-(benzo[c][1,2,5]oxadiazol-5-ylmethyl)-1H-pyrazol-4-yl]methyl}-6-hydroxy-5-oxo-4,5-dihydrothieno[3,2-b]pyridine-7-carboxylic acid] | 2250 to 10000 | < 200 | 750 to 2250
CS(=O)(=O)c1cccc(-n2cc(Cn3c(=O)c(O)c(C(=O)O)c4sccc43)cn2)c1 [Example 115, 6-hydroxy-4-({1-[3-(methylsulfonyl)phenyl]-1H-pyrazol-4-yl}methyl)-5-oxo-4,5-dihydrothieno[3,2-b]pyridine-7-carboxylic acid] | 750 to 2250 | < 200 | < 200
CC(=O)Nc1cccc(Cn2c(=O)c(O)c(C(=O)O)c3sccc32)c1 [Example 7, 4-[(3-acetamidophenyl)methyl]-6-hydroxy-5-oxo-thieno[3,2-b]pyridine-7-carboxylic acid] | 2250 to 10000 | < 200 | 750 to 2250
N#Cc1ccccc1-n1cc(Cn2c(=O)c(O)c(C(=O)O)c3sccc32)cn1 [Example 111, 4-{[1-(2-cyanophenyl)-1H-pyrazol-4-yl]methyl}-6-hydroxy-5-oxo-4,5-dihydrothieno[3,2-b]pyridine-7-carboxylic acid] | 750 to 2250 | 250 to 750 | 250 to 750
O=C(O)c1c(O)c(=O)n(Cc2ccccc2)c2ccsc12 [Example 3, 4-benzyl-6-hydroxy-5-oxo-4,5-dihydrothieno[3,2-b]pyridine-7-carboxylic acid] | 2250 to 10000 | 750 to 2250 | 2250 to 10000
CS(=O)(=O)c1cccc(Cn2c(=O)c(O)c(C(=O)O)c3sccc32)c1 [Example 63, 6-hydroxy-4-[3-(methylsulfonyl)benzyl]-5-oxo-4,5-dihydrothieno[3,2-b]pyridine-7-carboxylic acid] | 2250 to 10000 | 750 to 2250 | 2250 to 10000
O=C(O)c1c(O)c(=O)n(Cc2cnn(Cc3ccccc3)c2)c2ccsc12 [Example 122, 4-[(1-benzyl-1H-pyrazol-4-yl)methyl]-6-hydroxy-5-oxo-4,5-dihydrothieno[3,2-b]pyridine-7-carboxylic acid] | 750 to 2250 | < 200 | 2250 to 10000
COc1ccc(Cn2c(=O)c(O)c(C(=O)O)c3sccc32)cn1 [Example 98, 6-hydroxy-4-[(6-methoxypyridin-3-yl)methyl]-5-oxo-4,5-dihydrothieno[3,2-b]pyridine-7-carboxylic acid] | 2250 to 10000 |  | 2250 to 10000
COc1ccc(Cn2cc(Cn3c(=O)c(O)c(C(=O)O)c4sccc43)cn2)cc1 [Example 126, 6-hydroxy-4-{[1-(4-methoxybenzyl)-1H-pyrazol-4-yl]methyl}-5-oxo-4,5-dihydrothieno[3,2-b]pyridine-7-carboxylic acid] | 2250 to 10000 |  | 2250 to 10000
O=C(O)c1c(O)c(=O)n(Cc2cnc3c(-c4ccncc4)cccn23)c2ccsc12 [Example 31, 6-hydroxy-5-oxo-4-{[8-(pyridin-4-yl)imidazo[1,2-a]pyridin-3-yl]methyl}-4,5-dihydrothieno[3,2-b]pyridine-7-carboxylic acid] |  | 2250 to 10000 | 2250 to 10000
CS(=O)(=O)c1ccc(-c2ncc(Cn3c(=O)c(O)c(C(=O)O)c4sccc43)s2)cc1 [Example 166, 6-hydroxy-4-({2-[4-(methylsulfonyl)phenyl)thiazol-5-yl)methyl)-5-oxo-4,5-dihydrothieno[3,2-b]pyridine-7-carboxylic acid] |  | 250 to 750 | 250 to 750
CC(=O)N1CCCC(Cn2c(=O)c(O)c(C(=O)O)c3sccc32)C1 (centres unmarked) [Example 49, 4-((1-acetylpiperidin-3-yl)methyl)-6-hydroxy-5-oxo-4,5-dihydrothieno[3,2-b]pyridine-7-carboxylic acid] |  | 2250 to 10000 | 2250 to 10000
O=C(O)c1c(O)c(=O)n(Cc2cnc3c(Br)cccn23)c2ccsc12 [Example 164, 4-[(8-bromoimidazo[1,2-a]pyridin-3-yl)methyl]-6-hydroxy-5-oxo-4,5-dihydrothieno[3,2-b]pyridine-7-carboxylic acid] |  | 250 to 750 | 250 to 750
